Experimental findings from patent US6362209B1, “Heterocyclic aromatic oxazole compounds and use thereof” (Japan Tobacco Inc., priority 1994, dated 2002) are described below.

One assay has as its target cyclooxygenase-1 (Homo sapiens, UniProt P23219). In words: Inhibitory action on cyclooxygenase-1 (conversion of 14C arachidonic acid to PGH2). The assay is classed as biochemical. The note with it: enzyme prepared from human platelets; preincubation 24° C. 5 minutes; read-out: IC50 COX-1.
For assay [1], the system named is carrageenin-induced podedema. In words: Effects on carrageenin-induced podedema in rats. The assay is classed as in vivo, male Donryu rats. Conditions: oral dose one hour before carrageenin; limb volume 3 hours after carrageenin; dose inhibiting by 30% relative to control. The protocol: Experimental Example 2 (effects on carrageen in induced podedema) Carrageenin (1%, 0.05 ml) dissolved in physiological saline was subcutaneously injected to the left hindlimb of male Donryu rats to induce podedema. The degree of podedema was evaluated by measuring the volume of the limb 3 hours after carrageenin administration. A test compound (1, 3, 10 or 30 mg/kg) was orally administered one hour before carrageenin administration, and suppression thereby was studied. Inhibitory activity was expressed by the dose (ED30) of the test compound necessary for inhibiting by 30% relative to the control group.

The next assay has as its target T1, human cyclooxygenase-2 (Homo sapiens, UniProt P35354).
T1 sequence (P35354 18-604): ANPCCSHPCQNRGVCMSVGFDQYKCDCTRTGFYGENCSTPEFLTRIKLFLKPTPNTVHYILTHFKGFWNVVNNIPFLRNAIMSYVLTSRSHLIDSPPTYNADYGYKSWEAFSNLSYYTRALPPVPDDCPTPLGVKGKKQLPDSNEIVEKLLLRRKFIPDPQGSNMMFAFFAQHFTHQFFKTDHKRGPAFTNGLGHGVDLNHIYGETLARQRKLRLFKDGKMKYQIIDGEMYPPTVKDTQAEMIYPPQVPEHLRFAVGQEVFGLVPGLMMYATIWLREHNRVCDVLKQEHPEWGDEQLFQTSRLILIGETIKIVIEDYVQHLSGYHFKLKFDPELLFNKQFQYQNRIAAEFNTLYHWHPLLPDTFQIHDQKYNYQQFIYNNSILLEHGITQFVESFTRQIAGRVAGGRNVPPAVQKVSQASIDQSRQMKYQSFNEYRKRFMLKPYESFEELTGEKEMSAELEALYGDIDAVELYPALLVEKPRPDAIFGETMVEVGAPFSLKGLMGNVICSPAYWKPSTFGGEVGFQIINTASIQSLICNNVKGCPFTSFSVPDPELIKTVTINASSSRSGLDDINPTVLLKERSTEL
Description: Inhibitory action on cyclooxygenase-2 (conversion of 14C arachidonic acid to PGH2).

Chain of cyclooxygenase-1 (P23219 24-599): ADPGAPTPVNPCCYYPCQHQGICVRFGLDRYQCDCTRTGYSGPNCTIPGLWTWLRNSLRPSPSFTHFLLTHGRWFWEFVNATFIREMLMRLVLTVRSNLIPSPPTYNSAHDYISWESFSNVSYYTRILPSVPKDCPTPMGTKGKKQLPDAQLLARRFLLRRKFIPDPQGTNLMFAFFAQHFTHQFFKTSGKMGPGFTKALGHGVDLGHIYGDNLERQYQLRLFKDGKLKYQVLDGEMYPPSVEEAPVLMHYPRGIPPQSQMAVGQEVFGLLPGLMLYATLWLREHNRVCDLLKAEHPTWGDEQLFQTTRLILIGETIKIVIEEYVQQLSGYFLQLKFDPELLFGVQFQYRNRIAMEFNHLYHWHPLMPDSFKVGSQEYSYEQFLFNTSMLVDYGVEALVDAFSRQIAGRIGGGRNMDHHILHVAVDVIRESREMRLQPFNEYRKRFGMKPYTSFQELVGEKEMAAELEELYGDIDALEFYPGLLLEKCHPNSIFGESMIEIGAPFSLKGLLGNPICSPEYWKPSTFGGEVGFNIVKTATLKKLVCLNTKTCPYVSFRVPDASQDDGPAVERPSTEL
Description for cyclooxygenase-1: (§1) The enzymatic activity was determined from the percent conversion of ^14C arachidonic acid into prostaglandin H2 (PGH2) and the decomposed product thereof. That is, a test sample (20 μl), an enzyme solution (20 μl) and distilled water (10 μl) were added to 100 mM Tris-HCl buffer (pH 8, 140 μl) containing hematin (2 μM) and tryptophan (5 mM), and the mixture was thoroughly stirred, which was followed by preincubation at 24° C. for 5 minutes. Then, a ^14C arachidonic acid solution (10 μl) was added and the mixture was reacted at 24° C., whereafter a solution (40 μl) of ethyl ether/methanol/1M citric acid (30/4/1) iceooled to −20° C. was added to stop the reaction. The reaction mixture was centrifuged for 5 minutes at 3,000 rpm to give an ether layer which was placed on a thin plate, and developed with ethyl ether/methanol/acetic acid (90/2/0.1) to determine percent conversion (A) from arachidonic acid to PGH2 and the decomposed product thereof.
Inhibition (%)=(1A/B)×100
(§2) An enzyme prepared from human platelets was used as an enzyme solution of cyclooxygenase-1, and an enzyme expressed by a yeast, into which cDNA of human cyclooxygenase-2 had been introduced using a kit of Invitrogen Corp., was used as an enzyme solution of cyclooxygenase-2.
Description for human cyclooxygenase-2: as §1
Inhibition (%)=(1A/B)×100
as §2

In the case of `Cc1nc(C2CCCCC2)c(-c2ccc(S(N)(=O)=O)cc2)o1` [Control 1, reference compound], the IC50 on cyclooxygenase-1 was found to be 45 µM.

For the compound `Cc1nc(C2CCCCC2)c(-c2ccc(S(N)(=O)=O)c(F)c2)o1` [Example 2, 5-(4-aminosulfonyl-3-fluorophenyl)-4-cyclohexyl-2-methyloxazole], in assay [1], the “carrageenin-induced podedema in rats, ED30” value turned out to be 5.5 mg/kg p.o. Besides, the IC50 against human cyclooxygenase-2 stood at 0.07 µM.

Consider `Cc1nc(C2CCCCC2)c(-c2ccc(S(C)(=O)=O)c(F)c2)o1` [Example 3, 4-cyclohexyl-5-(3-fluoro-4-methylsulfonylphenyl)-2-methyloxazole], for which the IC50 at cyclooxygenase-1 was more than 100 µM; against human cyclooxygenase-2 it was 0.3 µM.

With `Cc1nc(C2CCCCC2)c(-c2cc(F)c(S(N)(=O)=O)c(F)c2)o1` [Example 6], the values for the IC50 at cyclooxygenase-1 and on human cyclooxygenase-2 were more than 100 µM and 0.16 µM, respectively.

Regarding `Cc1nc(-c2ccc(F)cc2)c(-c2ccc(S(N)(=O)=O)c(F)c2)o1` [Example 7, 5-(4-aminosulfonyl-3-fluorophenyl)-4-(4-fluorophenyl)-2-methyloxazole], the IC50 at cyclooxygenase-1 turned out to be 37 µM; against human cyclooxygenase-2, 0.03 µM.

Regarding `COc1ccc2c(c1)c(CC(=O)O)c(C)n2C(=O)c1ccc(Cl)cc1` [Indomethacin, reference compound], the “carrageenin-induced podedema in rats, ED30” value in assay [1] was 2.9 mg/kg p.o.
